This is an account of results in patent US10857160B2, “Oil-in-water nanoemulsion composition of clobetasol” (LABORATORIOS SALVAT, S.A., priority 2017, dated 2020).

This series deals with normotensive albino New Zealand rabbits. The series can be described thus: Study of effect on intraocular pressure (IOP). Type of series: in vivo, rabbit. Particulars: intra-cameral administration, dexamethasone 0.1% (positive control). Here is the method:
Control samples: • Positive control: dexamethasone 0.1%. • Negative control: 0.9% sodium chloride saline solution Material and Method • The laboratory animals used were normotensive albino New Zealand rabbits. The rabbits were adapted to periods of light/dark (12/12 hours) needed to adjust and maintain stable the diurnal cycle of the intraocular pressure (IOP). • Rabbits were distributed in different groups: the positive control group (positive control sample), the negative control group (negative control sample) and two test groups (two test samples). • The treatment involved the injection of dexamethasone into the anterior chamber, meanwhile for the rest of groups; each animal was topically instilled, in each eye with the control sample or the test composition 4 times a day for 15 days. • Measurement of IOP of the groups was performed twice a day. After the instillation in each animal, it was observed the possibility of adverse effects of the respective compound on the ocular surface. Results

Structures are written as SMILES.

Consider `C[C@@H]1C[C@H]2[C@@H]3CCC4=CC(=O)C=C[C@]4(C)[C@@]3(F)[C@@H](O)C[C@]2(C)[C@@]1(O)C(=O)CO` [dexamethasone], for which the “elevation of the intraocular pressure” value was “statistically significant elevation”.
